In US10336762B2 (priority 2017, dated 2019):
Where two headings read alike, the source gives them in different places.

Legend:
IRAK4 enzyme = IRAK4 enzyme (Homo sapiens (Human), UniProt Q9NWZ3); assay: biochemical; assay type: biochemical; conditions: IRAK4 enzyme, TR-FRET, 500 μM ATP
TNFα = assay: cells; assay type: cell-based, human; conditions: LPS-stimulated human monocytes, TNFα by TR-FRET, read-out: EC50 TNF

IRAK4 enzyme, sequence (Q9NWZ3 whole entry): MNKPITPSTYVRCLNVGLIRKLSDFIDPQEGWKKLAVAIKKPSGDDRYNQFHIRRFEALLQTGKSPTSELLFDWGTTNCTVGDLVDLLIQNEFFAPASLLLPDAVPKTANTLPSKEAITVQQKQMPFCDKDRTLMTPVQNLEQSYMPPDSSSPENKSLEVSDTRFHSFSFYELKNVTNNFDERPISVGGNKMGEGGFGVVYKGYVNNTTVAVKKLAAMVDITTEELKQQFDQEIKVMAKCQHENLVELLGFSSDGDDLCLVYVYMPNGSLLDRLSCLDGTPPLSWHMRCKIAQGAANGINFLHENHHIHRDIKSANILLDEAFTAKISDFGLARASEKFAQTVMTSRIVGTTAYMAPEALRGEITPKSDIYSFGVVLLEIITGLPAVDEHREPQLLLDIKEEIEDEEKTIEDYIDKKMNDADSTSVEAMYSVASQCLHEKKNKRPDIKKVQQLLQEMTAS

SMILES	IC50 (IRAK4 enzyme) [µM]	EC50 (TNFα; Homo sapiens, Monocyte) [µM]	EC50 (TNFα) [µM]
CC(C)(O)[C@H](F)CNC(=O)c1cnc(-c2ccc3cc(C#N)cnn23)cc1NC[C@H]1CCNC1 [Example 899, 6-(3-cyanopyrrolo[1,2-b]pyridazin-7-yl)-N-((R)-2-fluoro-3-hydroxy-3-methylbutyl)-4-((((S)-pyrrolidin-3-yl)methyl)amino)nicotinamide]	0.005	> 10	
COC(=O)N1CC[C@H](CNc2cc(-c3ccc4cc(C#N)cnn34)ncc2C(=O)NC[C@@H](F)C(C)(C)O)C1 [Example 900, (R)-methyl 3-(((2-(3-cyanopyrrolo[1,2-b]pyridazin-7-yl)-5-(((R)-2-fluoro-3-hydroxy-3-methylbutyl)carbamoyl)pyridin-4-yl)amino)methyl) pyrrolidine-1-carboxylate]	0.002	0.134	
CC(C)(O)[C@H](F)CNC(=O)c1cnc(-c2ccc3cc(C#N)cnn23)cc1NC[C@H]1CCN(CC(F)(F)F)C1 [Example 901, 6-(3-cyanopyrrolo[1,2-b]pyridazin-7-yl)-N-((R)-2-fluoro-3-hydroxy-3-methylbutyl)-4-((((R)-1-(2,2,2-trifluoroethyl)pyrrolidin-3-yl)methyl)amino)nicotinamide]	0.003	0.126	
CC(C)(O)[C@H](F)CNC(=O)c1cnc(-c2ccc3cc(C#N)cnn23)cc1NC1CC2(CCNC2)C1 (stereo partly drawn) [Example 902, (R)-4-(6-azaspiro[3.4]octan-2-ylamino)-6-(3-cyanopyrrolo[1,2-b]pyridazin-7-yl)-N-(2-fluoro-3-hydroxy-3-methyl-butyl)nicotinamide]	0.001	1.23	
COC(=O)N1CCC2(CC(Nc3cc(-c4ccc5cc(C#N)cnn45)ncc3C(=O)NC[C@@H](F)C(C)(C)O)C2)C1 (stereo partly drawn) [Example 903, (R)-methyl 2-((2-(3-cyano-pyrrolo[1,2-b]pyridazin-7-yl)-5-((2-fluoro-3-hydroxy-3-methylbutyl)carbamoyl)pyridin-4-yl)amino)-6-azaspiro[3.4]octane-6-carboxylate]	0.001	0.079	
CC(C)(O)[C@H](F)CNC(=O)c1cnc(-c2ccc3cc(C#N)cnn23)cc1NC1CC2(CCN(CC(F)(F)F)C2)C1 (stereo partly drawn) [Example 904, (R)-6-(3-cyanopyrrolo[1,2-b]pyridazin-7-yl)-N-(2-fluoro-3-hydroxy-3-methylbutyl)-4-((6-(2,2,2-trifluoroethyl)-6-aza-spiro[3.4]octan-2-yl)amino)nicotinamide]	0.001	0.117	
CC(C)(O)[C@H](F)CNC(=O)c1cnc(-c2ccc3cc(C#N)cnn23)cc1NCC1CNC1 [Example 905, (R)-4-((azetidin-3-yl-methyl)amino)-6-(3-cyanopyrrolo[1,2-b]pyridazin-7-yl)-N-(2-fluoro-3-hydroxy-3-methylbutyl)nicotinamide]	0.015	> 10	
COC(=O)N1CC(CNc2cc(-c3ccc4cc(C#N)cnn34)ncc2C(=O)NC[C@@H](F)C(C)(C)O)C1 [Example 906, (R)-methyl 3-(((2-(3-cyanopyrrolo[1,2-b]pyridazin-7-yl)-5-((2-fluoro-3-hydroxy-3-methylbutyl)carbamoyl)pyridin-4-yl)amino)methyl) azetidine-1-carboxylate]	0.01	0.186	
CC(C)(O)[C@H](F)CNC(=O)c1cnc(-c2ccc3cc(C#N)cnn23)cc1NCC1CN(CC(F)(F)F)C1 [Example 907, (R)-6-(3-cyanopyrrolo[1,2-b]pyridazin-7-yl)-N-(2-fluoro-3-hydroxy-3-methylbutyl)-4-(((1-(2,2,2-trifluoroethyl)azetidin-3-yl)methyl)amino) nicotinamide]	0.01	0.091	
CC(C)(O)[C@H](F)CNC(=O)c1cnc(-c2ccc3cc(C#N)cnn23)cc1NC1CC2(CCN2)C1 (stereo partly drawn) [Example 908, 4-(((4S,6r)-1-azaspiro[3.3]heptan-6-yl)amino)-6-(3-cyanopyrrolo[1,2-b]pyridazin-7-yl)-N-((R)-2-fluoro-3-hydroxy-3-methylbutyl)nicotinamide]	0.006	0.611	
COC(=O)N1CCC12CC(Nc1cc(-c3ccc4cc(C#N)cnn34)ncc1C(=O)NC[C@@H](F)C(C)(C)O)C2 (stereo partly drawn) [Example 909, (4S,6r)-methyl 6-((2-(3-cyanopyrrolo[1,2-b]pyridazin-7-yl)-5-(((R)-2-fluoro-3-hydroxy-3-methylbutyl)carbamoyl)pyridin-4-yl)amino)-1-azaspiro[3.3]heptane-1-carboxylate]	0.015		0.372
CC(C)(O)[C@H](F)CNC(=O)c1cnc(-c2ccc3cc(C#N)cnn23)cc1NC1CC2(CCN2CC(F)(F)F)C1 (stereo partly drawn) [Example 910, 6-(3-cyanopyrrolo[1,2-b]pyridazin-7-yl)-N-((R)-2-fluoro-3-hydroxy-3-methylbutyl)-4-(((4S,6r)-1-(2,2,2-trifluoroethyl)-1-azaspiro[3.3]heptan-6-yl)amino)nicotinamide]	0.01		1.21
CC(C)(O)[C@H](F)CNC(=O)c1cnc(-c2ccc3cc(C#N)cnn23)cc1NC1CC2(CCN2)C1 (stereo partly drawn) [Example 911, 4-(((4R,6s)-1-azaspiro[3.3]heptan-6-yl)amino)-6-(3-cyanopyrrolo[1,2-b]pyridazin-7-yl)-N-((R)-2-fluoro-3-hydroxy-3-methylbutyl) nicotinamide]	0.007		0.318
COC(=O)N1CCC12CC(Nc1cc(-c3ccc4cc(C#N)cnn34)ncc1C(=O)NC[C@@H](F)C(C)(C)O)C2 (stereo partly drawn) [Example 912, (4R,6s)-methyl 6-((2-(3-cyanopyrrolo[1,2-b]pyridazin-7-yl)-5-(((R)-2-fluoro-3-hydroxy-3-methylbutyl)carbamoyl)pyridin-4-yl)amino)-1-azaspiro[3.3]heptane-1-carboxylate]	0.006		0.176
CC(C)(O)[C@H](F)CNC(=O)c1cnc(-c2ccc3cc(C#N)cnn23)cc1NC1CC2(CCN2CC(F)(F)F)C1 (stereo partly drawn) [Example 913, 6-(3-cyanopyrrolo[1,2-b]pyridazin-7-yl)-N-((R)-2-fluoro-3-hydroxy-3-methylbutyl)-4-(((4R,6s)-1-(2,2,2-trifluoroethyl)-1-azaspiro[3.3]heptan-6-yl)amino)nicotinamide]	0.003		0.226
CC(C)(O)[C@H](F)CNC(=O)c1cnc(-c2ccc3cc(C#N)cnn23)cc1Nc1cnn([C@H]2CNC[C@H]2F)c1 [Example 914, 6-(3-cyanopyrrolo[1,2-b]pyridazin-7-yl)-N-((R)-2-fluoro-3-hydroxy-3-methylbutyl)-4-((1-((3S,4R)-4-fluoropyrrolidin-3-yl)-1H-pyrazol-4-yl)amino)nicotinamide]	< 0.001	0.013	
COC[C@@H]1CCN1c1ccc(Nc2cc(-c3ccc4cc(C#N)cnn34)ncc2C(=O)NC[C@@H](F)C(C)(C)O)cn1 [Example 915, 6-(3-cyanopyrrolo[1,2-b]pyridazin-7-yl)-N-((R)-2-fluoro-3-hydroxy-3-methylbutyl)-4-((6-((S)-2-(methoxymethyl)azetidin-1-yl)pyridin-3-yl)amino) nicotinamide]	0.001	0.028	
CC(C)(O)[C@H](F)CNC(=O)c1cnc(-c2ccc3cc(C#N)cnn23)cc1NC[C@H]1COCCN1 [Example 916, 6-(3-cyanopyrrolo[1,2-b]pyridazin-7-yl)-N-((R)-2-fluoro-3-hydroxy-3-methylbutyl)-4-((((S)-morpholin-3-yl)methyl)amino)nicotinamide]	0.003	0.088	
CC(C)(O)[C@H](F)CNC(=O)c1cnc(-c2ccc3cc(C#N)cnn23)cc1NC[C@@H]1COCCN1 [Example 917, 6-(3-cyanopyrrolo[1,2-b]pyridazin-7-yl)-N-((R)-2-fluoro-3-hydroxy-3-methylbutyl)-4-((((R)-morpholin-3-yl)methyl)amino)nicotinamide]	0.001	0.072	
COC(=O)N1CCOC[C@H]1CNc1cc(-c2ccc3cc(C#N)cnn23)ncc1C(=O)NC[C@@H](F)C(C)(C)O [Example 918, (R)-methyl 3-(((2-(3-cyano-pyrrolo[1,2-b]pyridazin-7-yl)-5-(((R)-2-fluoro-3-hydroxy-3-methylbutyl)carbamoyl)pyridin-4-yl)amino)methyl)morpholine-4-carboxylate]	0.031	0.416	
COC(=O)N1CCOC[C@@H]1CNc1cc(-c2ccc3cc(C#N)cnn23)ncc1C(=O)NC[C@@H](F)C(C)(C)O [Example 919, (S)-methyl 3-(((2-(3-cyano-pyrrolo[1,2-b]pyridazin-7-yl)-5-(((R)-2-fluoro-3-hydroxy-3-methylbutyl)carbamoyl)pyridin-4-yl)amino)methyl)morpholine-4-carboxylate]	0.037	0.707	
CC(C)(O)[C@H](F)CNC(=O)c1cnc(-c2ccc3cc(C#N)cnn23)cc1Nc1cnc(N2CC3CC(C2)O3)nc1 [Example 920, 4-((2-(6-oxa-3-aza-bicyclo[3.1.1]heptan-3-yl)pyrimidin-5-yl)amino)-6-(3-cyanopyrrolo[1,2-b]pyridazin-7-yl)-N-((R)-2-fluoro-3-hydroxy-3-methyl-butyl)nicotinamide]	< 0.001	0.008	
CC(C)(O)[C@H](F)CNC(=O)c1cnc(-c2ccc3cc(C#N)cnn23)cc1Nc1cnc(N2CCNCC2)nc1 [Example 921, (R)-6-(3-cyanopyrrolo[1,2-b]pyridazin-7-yl)-N-(2-fluoro-3-hydroxy-3-methyl-butyl)-4-((2-(piperazin-1-yl)pyrimidin-5-yl)amino) nicotinamide]	< 0.001	0.045	
CC(C)(O)[C@H](F)CNC(=O)c1cnc(-c2ccc3cc(C#N)cnn23)cc1Nc1ccc(N2CC3CC(C2)O3)nc1 [Example 922, 4-((6-(6-oxa-3-azabicyclo[3.1.1]heptan-3-yl)pyridin-3-yl)amino)-6-(3-cyanopyrrolo[1,2-b]pyridazin-7-yl)-N-((R)-2-fluoro-3-hydroxy-3-methylbutyl)nicotinamide]	< 0.001	0.042	
